# Reference: the OligoGym collection
# Several values for one entry are separate records, joined by “and”; a condition that tells them apart may be missing. Equal values may be shown once. After the bases stand the sugars from the 5' end (letter, count) and the backbone: PS all phosphorothioate, else s phosphorothioate and o phosphodiester by linkage. Methylation of C is not given here. e = 2'-O-(2-methoxyethyl) (MOE); k = constrained ethyl (cEt); d = 2'-deoxy (DNA)
# Biological target: KRAS
# Details: ASO
Sequence,"target mRNA inhibition (A431, 2 µM)",further results
"ATGGTGAATATCTTCA (sugars k3 d10 k3, PS)",64%,"target mRNA inhibition (A431, 1.667 µM): 45% and 31%; target mRNA inhibition (A431, 5 µM): 70% and 65%"
"ATGGTGTAACATAGGT (sugars k3 d10 k3, PS)",59% and 47% and 52%,"target mRNA inhibition (A431, 0.185 µM): 17%; target mRNA inhibition (A431, 0.556 µM): 36%; target mRNA inhibition (A431, 1.667 µM): 59%; target mRNA inhibition (A431, 5 µM): 75%"
"ATGGTGTAACATAGGT (sugars kddddddddddkekek, PS)",47%,–
"ATGGTGTAACATAGGT (sugars kkddddddddkekekk, PS)",40%,–
"ATGGTGTAACATAGGT (sugars kkkddddddddkekek, PS)",43%,–
"ATGTAGGGCATTTCTG (sugars k3 d10 k3, PS)",9%,–
"ATTAGGAGTCTTTATA (sugars k3 d10 k3, PS)",20%,–
"ATTAGTCTCCATTAGT (sugars k3 d10 k3, PS)",29%,–
"ATTCAAAGTTCACATA (sugars k3 d10 k3, PS)",0%,–
"ATTGTGCAATGGTGAC (sugars k3 d10 k3, PS)",57%,–
"CAACTGCATGCACCAA (sugars k3 d10 k3, PS)",31%,–
"CACTTGTACTAGTATG (sugars k3 d10 k3, PS)",36%,–
"CAGATTGTGCTGAGCT (sugars k3 d10 k3, PS)",29%,–
"CAGTGTGACTCAGTTA (sugars kddddddddddkekek, PS)",32%,–
"CAGTGTGACTCAGTTA (sugars kdddddddddkekeke, PS)",54%,–
"CAGTGTGACTCAGTTA (sugars kkdddddddddkekek, PS)",56%,–
"CAGTGTGACTCAGTTA (sugars kkkdddddddddkeke, PS)",55%,–
"CAGTGTGACTCAGTTA (sugars kkkddddddddkdkdk, PS)",60% and 50%,"target mRNA inhibition (A431, 0.185 µM): 10%; target mRNA inhibition (A431, 0.556 µM): 24%; target mRNA inhibition (A431, 1.667 µM): 45%; target mRNA inhibition (A431, 5 µM): 66%"
"CAGTGTGACTCAGTTA (sugars kkkddddddddkekek, PS)",63%,"target mRNA inhibition (A431, 0.185 µM): 28%; target mRNA inhibition (A431, 0.556 µM): 24%; target mRNA inhibition (A431, 1.667 µM): 46%; target mRNA inhibition (A431, 5 µM): 71%"
"CAGTGTTAAGAGAACT (sugars kddddddddddkekek, PS)",23%,–
"CATTACTTTTTGACAA (sugars k3 d10 k3, PS)",8%,–
"CATTCAAAGTTCACAT (sugars k3 d10 k3, PS)",2%,–
"CATTCAAAGTTCACAT (sugars kddddddddddkekek, PS)",43%,–

Sequence,"target mRNA inhibition (A431, 2 µM)",further results
"CATTTATGTGACTAGA (sugars kdddddddddkekeke, PS)",24%,–
"CCAGTGATACTTTCAC (sugars k3 d10 k3, PS)",15%,–
"CCAGTGATACTTTCAC (sugars kdddddddddkekeke, PS)",16%,–
"CCAGTGTTAAGAGAAC (sugars k3 d9 k3 e1, PS)",55%,–
"CCAGTGTTAAGAGAAC (sugars k3 d10 k3, PS)",33%,–
"CCAGTGTTAAGAGAAC (sugars kkdddddddddkdkdk, PS)",38%,–
"CCAGTGTTAAGAGAAC (sugars kkdddddddddkekek, PS)",43%,–
"CCATTCAAAGTTCACA (sugars kkddddddddddkeke, PS)",63%,"target mRNA inhibition (A431, 0.185 µM): 19%; target mRNA inhibition (A431, 0.556 µM): 32%; target mRNA inhibition (A431, 1.667 µM): 50%; target mRNA inhibition (A431, 5 µM): 67%; target mRNA inhibition (NCI-H460, 0.037 µM): 54.7%"
"CCATTCAAAGTTCACA (sugars kkdddddddddkekek, PS)",36%,–
"CCATTTATGTGACTAG (sugars kkdddddddddkdkdk, PS)",43%,–
"CCATTTATGTGACTAG (sugars kkdddddddddkekek, PS)",25%,–
"CGAGAATGGATATTCA (sugars k3 d10 k3, PS)",14%,–
"CTAAAACAAATGCTAA (sugars k3 d10 k3, PS)",15%,–
"CTGTAGTTTCACATAG (sugars k3 d10 k3, PS)",25%,–
"CTGTCTATTCATACCA (sugars k3 d10 k3, PS)",34%,–
"CTGTGAAACTCTCTAT (sugars k3 d10 k3, PS)",29%,–
"CTTACAAATCTGAATT (sugars k3 d10 k3, PS)",7%,–
"CTTCATTGTTTAAAAA (sugars k3 d10 k3, PS)",11%,–
"CTTGATTTGTCAGCAG (sugars k3 d9 k3 e1, PS)",46%,–
"CTTGATTTGTCAGCAG (sugars kkkddddddddkekek, PS)",41%,–
"CTTGTACTAGTATGCC (sugars k3 d10 k3, PS)",59%,"target mRNA inhibition (A431, 0.185 µM): 24% and 13%; target mRNA inhibition (A431, 0.556 µM): 46% and 35%; target mRNA inhibition (A431, 1.667 µM): 67% and 52%; target mRNA inhibition (A431, 5 µM): 77% and 71%"
"CTTGTTGAGCTATCCA (sugars k3 d10 k3, PS)",63%,–
"GACTTGAAAAGTGTTT (sugars k3 d10 k3, PS)",14%,–

Sequence,"target mRNA inhibition (A431, 2 µM)",further results
"GAGATATCCACAGCAG (sugars k3 d10 k3, PS)",49%,–
"GAGTCTTTATAGTAAT (sugars kkddddddddkekekk, PS)",0%,–
"GATATCCACAGCAGCA (sugars k3 d10 k3, PS)",10%,–
"GATGTAGGGCATTTCT (sugars k3 d10 k3, PS)",0%,–
"GATTGTGCTGAGCTTG (sugars kkdddddddddkdkdk, PS)",57%,"target mRNA inhibition (A431, 0.185 µM): 0%; target mRNA inhibition (A431, 0.556 µM): 17%; target mRNA inhibition (A431, 1.667 µM): 48%; target mRNA inhibition (A431, 5 µM): 58%"
"GCATGAAGATTTCTGG (sugars k3 d10 k3, PS)",62% and 66% and 60%,–
"GCATGTAAATATAGCC (sugars k3 d10 k3, PS)",11%,–
"GCATTTCTGATGTGAC (sugars k3 d10 k3, PS)",24%,–
"GCTATTAGGAGTCTTT (sugars k3 d10 k3, PS)",–,"target mRNA inhibition (A431, 0.125 µM): 68% and 67%; target mRNA inhibition (A431, 0.185 µM): 33% and 16% and 26%; target mRNA inhibition (A431, 0.556 µM): 50% and 47% and 44%; target mRNA inhibition (A431, 1.667 µM): 77% and 67% and 58%; target mRNA inhibition (NCI-H460, 0.037 µM): 69.9%"
"GCTGTGAAACTCTCTA (sugars kdddddddddkekeke, PS)",2%,–
"GGAGATATCCACAGCA (sugars k3 d10 k3, PS)",0%,–
"GGAGTCTTTATAGTAA (sugars k3 d9 k3 e1, PS)",41%,–
"GGAGTCTTTATAGTAA (sugars k3 d10 k3, PS)",38%,–
"GGAGTCTTTATAGTAA (sugars kkdddddddddkdkdk, PS)",29%,–
"GGAGTCTTTATAGTAA (sugars kkdddddddddkekek, PS)",21%,–
"GGCATTTCTGATGTGA (sugars k3 d10 k3, PS)",8%,–
"GGGCATTTCTGATGTG (sugars k3 d10 k3, PS)",7%,–
"GGTGTAACATAGGTTA (sugars kkddddddddkekekk, PS)",54%,"target mRNA inhibition (A431, 0.185 µM): 0%; target mRNA inhibition (A431, 0.556 µM): 2%; target mRNA inhibition (A431, 1.667 µM): 40%; target mRNA inhibition (A431, 5 µM): 58%"
"GTAAATATAGCCCCAA (sugars k3 d10 k3, PS)",29%,–
"GTACTAGTATGCCTTA (sugars k3 d10 k3, PS)",50%,–
"GTAGTTTCACATAGCA (sugars k3 d10 k3, PS)",46%,–
"GTATTAACACAGAAGT (sugars k3 d10 k3, PS)",0%,–
"GTCCAGTGATACTTTC (sugars kkddddddddddkeke, PS)",39%,–

Sequence,"target mRNA inhibition (A431, 2 µM)",further results
"GTGAAACTCTCTATGA (sugars k3 d10 k3, PS)",28%,–
"GTGTGACTCAGTTAAA (sugars kkddddddddkekekk, PS)",38%,–
"GTGTTTATGCAATGTT (sugars k3 d9 k3 e1, PS)",59%,"target mRNA inhibition (A431, 0.185 µM): 19%; target mRNA inhibition (A431, 0.556 µM): 63%; target mRNA inhibition (A431, 1.667 µM): 79%; target mRNA inhibition (A431, 5 µM): 88%"
"GTGTTTATGCAATGTT (sugars kkddddddddkekekk, PS)",9%,–
"GTGTTTATGCAATGTT (sugars kkkdddddddddkeke, PS)",66%,"target mRNA inhibition (A431, 0.185 µM): 30%; target mRNA inhibition (A431, 0.556 µM): 55%; target mRNA inhibition (A431, 1.667 µM): 80%; target mRNA inhibition (A431, 5 µM): 85%"
"GTTCTGTCTATTCATA (sugars k3 d10 k3, PS)",31%,–
"GTTGAGCTATCCAAAC (sugars k3 d10 k3, PS)",2%,–
"GTTTAAAAAAAAAATT (sugars k3 d10 k3, PS)",2%,–
"GTTTATGCAATGTTAA (sugars kdddddddddkekeke, PS)",31%,–
"GTTTCACATAGCAATT (sugars k3 d10 k3, PS)",29%,–
"TAAGGTAAAAGCTAAC (sugars k3 d10 k3, PS)",20%,–
"TAATAGTTTCCATTGC (sugars k3 d10 k3, PS)",53%,–
"TAATTAATCCATTTAT (sugars k3 d10 k3, PS)",0%,–
"TAGTGATTAGGTCAAA (sugars k3 d9 k3 e1, PS)",43%,–
"TAGTGATTAGGTCAAA (sugars kkddddddddddkeke, PS)",34%,–
"TCCAGTATTAACACAG (sugars k3 d10 k3, PS)",34%,–
"TCCAGTGATACTTTCA (sugars kkdddddddddkdkdk, PS)",35%,–
"TCCAGTGATACTTTCA (sugars kkkddddddddkekek, PS)",48%,–
"TCCATTTATGTGACTA (sugars k3 d10 k3, PS)",–,"target mRNA inhibition (A431, 0.185 µM): 29%; target mRNA inhibition (A431, 0.556 µM): 59%; target mRNA inhibition (A431, 1.667 µM): 65%; target mRNA inhibition (A431, 5 µM): 78%"
"TCCATTTATGTGACTA (sugars kkdddddddddkekek, PS)",32%,–
"TCTATGAAAGCTCAAA (sugars k3 d10 k3, PS)",18%,–
"TCTCCATTAGTAAATA (sugars k3 d10 k3, PS)",13%,–
